Here are results for 18 compounds from patent US6329338A, “Derivatives of cyclodepsipeptide PF1022 substance” (Meiji Seika Kaisha, Ltd., priority 1995, dated 2001).

The test system of one test is Haemonchus contortus. Briefly: in vivo test on anthelmintic activity against sheep parasites (faecal egg count before and after dosing). As to conditions: sheep infested with Haemonchus contortus; oral, gelatine capsules. From the text: "in vivo" Test on Anthelmintic Activity Against Sheep Parasites
To sheep on which a nematode, Haemonchus contortus has been infested, a test compounds formulated in the form of gelatine capsules was orally administered at its dose (mg) which was accurately calculated on the basis of the body weight (kg) of the tested sheep.
The number of eggs, which were excreted along with feces from the sheep under test, was counted quantitatively both before and after the administration of the test compound. Thus, the extent of the anthelmintic effects of the test compound was evaluated. The test results are shown in Table 1 below, wherein the tested compounds are indicated by the code number of each substance tested. In Table 1, there is shown the dosage of test compound at which involvement of the excretion of eggs could not be observed at all, that is to say, the dosage of each novel cyclodespsipeptide derivative of PF1022 substance according to this invention at which the parasite could be expelled or exterminated completely.

Test [1] concerns Nippostrongylus brasiliensis. Briefly: in vivo test on anthelmintic activity against Nippostrongylus brasiliensis in rats (adult parasites remaining in small intestine). As to conditions: male Wister rats, oral, ten days after administration, vs infected untreated control. Here is the method:
"in vivo" Test on Anthelmintic Activity Against Nipostrongylus brasiliensis Male rats of Wister strain, which have been artificially infected with Nippostrongylus brasiliensis, were used as test animals. The administration dose (mg) of each test compound was accurately calculated on the basis of the body weight (kg) of each rat. Each compound tested was used in the form of a solution in dimethlsulfoxide or methanol. The solution was diluted with a Ringer solution and forcedly administered orally to the test rats. Ten days after the administration, the rats were dissected and the number of adult parasites remaining in the small intestines of the rats was counted. Efficacy was calculated in comparison with the number of adult parasites in the control group of test rats (infected, but untreated) and is shown in Table 2 below.

Regarding “Cyclo[MeLeu-Lac-MeLeu-(pipCH2 CH2 O)PhLac-MeLeu-Lac-MeLeu-PhLac] [PF1022-285]”, the “Adminstration dose (mg/kg): dosage at which excretion of eggs could not be observed at all (parasite expelled completely)” value in the test with Haemonchus contortus is 0.1 mg/kg.
With `COCCN(CCOC)CCOc1ccc(CC2OC(=O)C(CC(C)C)N(C)C(=O)C(C)OC(=O)C(CC(C)C)N(C)C(=O)C(Cc3ccccc3)OC(=O)C(CC(C)C)N(C)C(=O)C(C)OC(=O)C(CC(C)C)N(C)C2=O)cc1` (stereo not drawn) [PF1022-238, Cyclo[MeLeu-((CH3 OCH2 CH2)2 NCH2 CH2 O)PhLac-MeLeu-Lac-MeLeu-PhLac-MeLeu-Lac]], the “Adminstration dose (mg/kg): dosage at which excretion of eggs could not be observed at all (parasite expelled completely)” value with Haemonchus contortus was 0.01 mg/kg.
On to “Cyclo[MeLeu-(o-Mor)PhLac-MeLeu-Lac-MeLeu-(p-Mor)PhLac-MeLeu-Lac] [PF1022-280]”, for which the “Efficacy (%)” value in test [1] (dosage 1 mg/kg) amounted to 95.8%; in test [1] (dosage 2 mg/kg) it was 99.3%; in test [1] (dosage 5 mg/kg), 100%.
Turning to `CC(C)C[C@H]1C(=O)O[C@H](Cc2ccccc2)C(=O)N(C)[C@@H](CC(C)C)C(=O)O[C@H](C)C(=O)N(C)[C@@H](CC(C)C)C(=O)O[C@H](Cc2ccccc2)C(=O)N(C)[C@@H](CC(C)C)C(=O)O[C@H](C)C(=O)N1C` [PF1022 substance, Cyclo(L-MeLeu-D-Lac-L-MeLeu-D-PhLac-L-MeLeu-D-Lac-L-MeLeu-D-PhLac)], the “Efficacy (%)” value in test [1] (dosage 10 mg/kg) was determined as 80.2%. Besides, the “Adminstration dose (mg/kg): dosage at which excretion of eggs could not be observed at all (parasite expelled completely)” value in the test with Haemonchus contortus is 0.25 mg/kg.
As to “Cyclo[MeLeu-Lac-MeLeu-((CH3)2 NCH2 CH2 O)PhLac-MeLeu-Lac-MeLeu-PhLac] [PF1022-235]”, the “Adminstration dose (mg/kg): dosage at which excretion of eggs could not be observed at all (parasite expelled completely)” value in the test with Haemonchus contortus came to 0.1 mg/kg.
As to “Cyclo[MeLeu-Lac-MeLeu-(Pr2 NCH2 CH2 O)PhLac-MeLeu-Lac-MeLeu-PhLac] [PF1022-270]”, the “Efficacy (%)” value in test [1] (dosage 2 mg/kg) turned out to be 94.2%; in test [1] (dosage 5 mg/kg), 99.7%.
As to `CCN(CC)CCOc1ccc(C[C@H]2OC(=O)[C@H](CC(C)C)N(C)C(=O)[C@@H](C)OC(=O)[C@H](CC(C)C)N(C)C(=O)[C@@H](Cc3ccccc3)OC(=O)[C@H](CC(C)C)N(C)C(=O)[C@@H](C)OC(=O)[C@H](CC(C)C)N(C)C2=O)cc1` [PF1022-236, Cyclo[MeLeu-Lac-MeLeu-((C2 H5)2 NCH2 CH2 O)PhLac-MeLeu-Lac-MeLeu-PhLac]], the “Adminstration dose (mg/kg): dosage at which excretion of eggs could not be observed at all (parasite expelled completely)” value in the test on Haemonchus contortus stood at 0.01 mg/kg.
As to “Cyclo[MeLeu-Lac-MeLeu-(imidazolyl-4-methoxy)PhLac-MeLeu-Lac-MeLeu-PhLac] [PF1022-304]”, the “Adminstration dose (mg/kg): dosage at which excretion of eggs could not be observed at all (parasite expelled completely)” value with Haemonchus contortus is 0.05 mg/kg.
Regarding “Cyclo[MeLeu-Lac-MeLeu-((C6 H5)2 CHOCO)Lac]2 [PF1022-045]”, the “Adminstration dose (mg/kg): dosage at which excretion of eggs could not be observed at all (parasite expelled completely)” value in the test with Haemonchus contortus worked out at 0.1 mg/kg.
Turning to “Cyclo[MeLeu-Lac-MeLeu-(t-BuO)PhLac]2 [PF1022-222]”, the “Adminstration dose (mg/kg): dosage at which excretion of eggs could not be observed at all (parasite expelled completely)” value with Haemonchus contortus turned out to be 0.05 mg/kg.
For the compound “Cyclo[MeLeu-Lac-MeLeu-PhLac-MeLeu-Lac-MeLeu-(NH2 CO)PhLac] [PF1022-242]”, the “Adminstration dose (mg/kg): dosage at which excretion of eggs could not be observed at all (parasite expelled completely)” value with Haemonchus contortus is on record as 0.01 mg/kg.
With “Cyclo[MeLeu-Lac-MeLeu-(furfuryloxy)PhLac-MeLeu-Lac-MeLeu-PhLac] [PF1022-312]”, the “Adminstration dose (mg/kg): dosage at which excretion of eggs could not be observed at all (parasite expelled completely)” value in the test on Haemonchus contortus stood at 0.05 mg/kg.
As for “Cyclo[MeLeu-Lac-MeLeu-((C2 H5)2 NHCH2 CH2 O)PhLac]2 [PF1022-263]”, the “Adminstration dose (mg/kg): dosage at which excretion of eggs could not be observed at all (parasite expelled completely)” value in the test with Haemonchus contortus was found to be 0.01 mg/kg.
Turning to “Cyclo[MeLeu-(Mor)PhLac-MeLeu-Lac-MeLeu-PhLac-MeLeu-Lac] [PF1022-233]”, the “Efficacy (%)” value turned out to be 99.1% in test [1] (dosage 1 mg/kg), 100% in test [1] (dosage 2 mg/kg) and 100% in test [1] (dosage 5 mg/kg). In addition, in the test on Haemonchus contortus, the “Adminstration dose (mg/kg): dosage at which excretion of eggs could not be observed at all (parasite expelled completely)” value amounted to 0.05 mg/kg.
For the compound “Cyclo[MeLeu-(MorCH2 CH2 O)PhLac-MeLeu-Lac-MeLeu-PhLac-MeLeu-Lac] [PF1022-239]”, the “Adminstration dose (mg/kg): dosage at which excretion of eggs could not be observed at all (parasite expelled completely)” value with Haemonchus contortus was 0.025 mg/kg.
For the compound “Cyclo[MeLeu-Lac-MeLeu-(Bu2 NCH2 CH2 O)PhLac-MeLeu-Lac-MeLeu-PhLac] [PF1022-271]”, in test [1] (dosage 5 mg/kg), the “Efficacy (%)” value amounted to 100%.
Turning to “Cyclo[MeLeu-Lac-MeLeu-((C6 H5)2 CHOCO)Lac-MeLeu-Lac-MeLeu-PhLac] [PF1022-046]”, the “Adminstration dose (mg/kg): dosage at which excretion of eggs could not be observed at all (parasite expelled completely)” value in the test on Haemonchus contortus was 0.1 mg/kg.
With “Cyclo[MeLeu-(Mor)PhLac-MeLeu-Lac] [reference compound]”, the “Adminstration dose (mg/kg): dosage at which excretion of eggs could not be observed at all (parasite expelled completely)” value in the test with Haemonchus contortus is 0.05 mg/kg.
